Tests used:
[1] = target: Dopamine receptors; D1 & D2 (Rattus norvegicus, UniProt P18901+P61169); test: In vitro binding affinity to Dopamine receptor D1/Dopamine receptor D2 in rat striatal membranes using [3H]N-propylnorapomorphine; type: cell membranes, Striatum, Membrane
D(1A) dopamine receptor = D(1A) dopamine receptor (Rattus norvegicus, UniProt P18901); test: In vitro binding affinity to Dopamine receptor D1 in rat striatal membranes using D1 antagonist [3H]SCH-23390; type: cell membranes, Striatum, Membrane
Rattus norvegicus [2] = test: Compound was evaluated for reversal of the increase in rat striatum DOPA accumulation produced by the pretreatment with GBL (750 mg/Kg, ip) and NSD 1015 (100 mg/Kg, ip); type: functional
Rattus norvegicus [3] = test: Compound was evaluated for inhibition of the spontaneous firing of substantia nigra DA neurons in anesthetized rats at 2.5 mg/Kg (ip); type: functional
D(2) dopamine receptor = D(2) dopamine receptor (Rattus norvegicus, UniProt P61169); test: In vitro binding affinity to Dopamine receptor D2 in rat striatal membranes using D2 antagonist [3H]spiperone; type: cell membranes, Striatum, Membrane
Rattus norvegicus [4] = test: Compound was evaluated for reversal of the increase in rat striatum DOPA accumulation produced by the pretreatment with GBL (750 mg/kg, ip) and NSD 1015 (100 mg/Kg, ip); type: functional
Rattus norvegicus [5] = test: Compound (2.0 mg/kg ip.) was evaluated for reversal of the increase in rat striatum DOPA accumulation produced by the pretreatment with GBL (750 mg/Kg, ip) and NSD 1015 (2 mg/Kg, ip); type: functional
Rattus norvegicus [6] = test: Compound was evaluated for inhibition of the spontaneous firing of substantia nigra DA neurons in anesthetized rats at 0.25 mg/Kg (ip); type: functional

Sequence of D(1A) dopamine receptor (P18901 whole entry): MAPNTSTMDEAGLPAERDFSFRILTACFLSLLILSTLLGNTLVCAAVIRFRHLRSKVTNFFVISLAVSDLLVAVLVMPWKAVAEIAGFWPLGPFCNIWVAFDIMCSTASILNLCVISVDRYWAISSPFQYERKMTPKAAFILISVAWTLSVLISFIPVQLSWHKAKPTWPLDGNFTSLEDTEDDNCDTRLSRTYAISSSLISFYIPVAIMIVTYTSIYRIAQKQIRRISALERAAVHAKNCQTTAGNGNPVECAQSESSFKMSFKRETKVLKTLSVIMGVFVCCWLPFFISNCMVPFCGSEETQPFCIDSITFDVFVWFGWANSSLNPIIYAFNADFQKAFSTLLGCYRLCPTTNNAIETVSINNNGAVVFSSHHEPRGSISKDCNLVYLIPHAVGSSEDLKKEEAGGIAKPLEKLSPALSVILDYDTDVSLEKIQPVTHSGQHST
Sequence of D(2) dopamine receptor (P61169 whole entry): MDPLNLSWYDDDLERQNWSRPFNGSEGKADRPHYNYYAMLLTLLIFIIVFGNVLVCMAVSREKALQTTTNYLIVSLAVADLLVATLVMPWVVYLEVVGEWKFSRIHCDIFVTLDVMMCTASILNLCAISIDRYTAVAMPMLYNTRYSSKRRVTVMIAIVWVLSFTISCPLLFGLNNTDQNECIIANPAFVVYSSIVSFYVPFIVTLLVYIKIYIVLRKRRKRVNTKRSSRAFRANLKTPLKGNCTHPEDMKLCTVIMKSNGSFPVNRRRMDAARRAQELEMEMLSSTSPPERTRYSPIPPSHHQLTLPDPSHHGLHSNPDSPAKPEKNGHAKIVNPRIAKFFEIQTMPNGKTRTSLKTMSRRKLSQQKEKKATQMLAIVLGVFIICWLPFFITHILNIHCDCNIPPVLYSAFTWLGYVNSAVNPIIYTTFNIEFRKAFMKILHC

Structure (SMILES)	IC50 [1] [µM]	IC50 (D(1A) dopamine receptor) [µM]	ED50 (Rattus norvegicus [2]) [mg/kg]	inhibition in vivo at 2.5 mg/kg (Rattus norvegicus [3]) [%]	IC50 (D(2) dopamine receptor) [µM]	ED50 (Rattus norvegicus [4]) [mg/kg]	Inhibition (Rattus norvegicus [5]) [%]	inhibition in vivo at 0.25 mg/kg (Rattus norvegicus [6]) [%]
CN1CCC=C2c3nc(N)sc3CC[C@H]21	0.127	> 20	0.5	99	0.376	–	–	–
CCCN1CCC=C2c3nc(N)sc3CC[C@@H]21	–	> 15	> 10	22	–	–	–	–
CCCN1CCC=C2c3nc(N)sc3CC[C@H]21	–	> 15	4.8	91	–	–	–	–
CN1CCC=C2c3nc(N)sc3CC[C@@H]21	0.464	> 20	–	67	0.768	> 10	–	–
CN1CCc2cccc3c2[C@H]1Cc1ccc(O)c(O)c1-3 [APOMORPHINE]	–	–	–	–	–	–	100	100
